# Data from patent US20170304286A1 (LAUNX BIOMEDICAL CO., LTD., priority 2014, published 2017).
# Where two headings read alike, the source gives them in different places.
# Key:
# Format in all cases: cell-based
# normal cells = experiment: Toxicity to normal cells (cell viability)
# Text: Subculture the different types of cancer cells. The cancer cells includes lung cancer, gastric cancer, hepatic cancer, colon cancer, skin cancer, cervical cancer, prostate cancer, bladder cancer, breast cancer, leukemia, pancreatic cancer, ovarian cancer, tongue cancer, osteosarcoma, and renal cancer. The normal cells used in the control group included kidney cells (HEK293), canine fibroblast cell line HFW, and human bronchial epithelial cell line BEAS-2B.
# (§1) Removing the original culture medium from 96-well plate. Then add 100 μl of commercially drug at a concentration of 10 μM per well. After 72 hours, add the diluted WST-1 reagent to the well with 100 μl/well, and the diluted WST-1 reagent was acquired from the dilution of 9:1 medium and WST-1 stock reagent. Finally, the total volume of each well was 200 μl/well. Culture the 96-well plate at 37° C. for 30 to 90 minutes. Detecting and calculate the survival rate of each cancer cells with an ELISA reader at OD450 nm.
# U2OS = experiment: WST-1 cell viability, osteosarcoma cell line U2OS; conditions: Homo sapiens, 72 h
# Method: (§2) The cell numbers were counted and reseed as 2×10^6 in culture plate/flask. Then, the culture medium were added to a volume of 10 ml, and the cells were cultured for 2-3 days. Then, the cells were suspended for loading into 96-well plates. The number of cells was 3000 and the volume of the culture medium was 100 μl each well.
# as §1
# [1] = WST-1 cell viability, normal pulmonary epithelial cell line BEAS-2B; conditions: human, BEAS-2B normal bronchial (pulmonary) epithelial cells
# NIH-OVCAR-3 = experiment: WST-1 cell viability, ovarian cancer cell line NIH-OVCAR-3; conditions: Homo sapiens
# Method: as §2, §1
# [2] = system: Hep3B (hepatocellular carcinoma); experiment: WST-1 cell viability, hepatic cancer cell line Hep3B; conditions: Homo sapiens, 72 h
# Method: as §2, §1
# HCT116-wt = experiment: WST-1 cell viability, colorectal cancer cell line HCT116-wt; conditions: 72 h
# Method: as §2, §1
# TOV-21G = experiment: WST-1 cell viability, ovarian cancer cell line TOV-21G; conditions: Homo sapiens, TOV21G, 72 h
# Method: as §2, §1
# skin cancer cells = experiment: Summary of cell viability, skin cancer; conditions: 72 h, read-out: Inhibitory effect
# Method: as §1
# gastric cancer cells = experiment: Summary of cell viability, gastric cancer; conditions: gastriccancer, 72 h, read-out: Inhibitory effect
# Method: as §1
# [3] = system: MKN-45 (Gastric Adenocarcinoma); experiment: WST-1 cell viability, gastric cancer cell line MKN-45; conditions: Homo sapiens
# Method: as §2, §1
# [4] = system: 786-O (Renal adenocarcinoma); experiment: WST-1 cell viability, renal cancer cell line 786-O; conditions: Homo sapiens
# Method: as §2, §1
# hepatic cancer cells = experiment: Summary of cell viability, hepatic cancer; conditions: 72 h, read-out: Inhibitory effect
# Method: as §1
# [5] = system: MCF7 (Mammary Gland, Adenocarcinoma); experiment: WST-1 cell viability, breast cancer cell line MCF7; conditions: Homo sapiens
# Method: as §2, §1
# [6] = average of 4 tests, read-out: survival rate (inhibition effect), Average
smiles,measurement,setting,value
Fc1ccc([C@@H]2CCNC[C@H]2COc2ccc3c(c2)OCO3)cc1 [Paroxetine],toxicity to normal cells,normal cells,no toxicity or had little toxicity
same,viability at 10 µM,U2OS; [6],33.2%
same,viability at 10 µM,"U2OS; run 6-26-10 min, read-out: survival rate (inhibition effect)",40.6%
same,viability at 10 µM,"U2OS; run 6-28-10 min, read-out: survival rate (inhibition effect)",30.8%
same,viability at 10 µM,"U2OS; run 6-30-10 min, read-out: survival rate (inhibition effect)",30.3%
same,viability at 10 µM,"U2OS; run 7-3-10 min, read-out: survival rate (inhibition effect)",31.1%
same,viability at 10 µM,"U2OS; summary, osteosarcoma, read-out: Inhibitory effect",33.2%
same,"viability at 72 h, 10 µM","[1]; BEAS-2B, average of 4 tests, read-out: survival rate (inhibition effect), Average",98.6%
same,"viability at 72 h, 10 µM","[1]; BEAS-2B, run 0512-10 min, read-out: survival rate (inhibition effect)",103%
same,"viability at 72 h, 10 µM","[1]; BEAS-2B, run 0515-10 min, read-out: survival rate (inhibition effect)",96.4%
same,"viability at 72 h, 10 µM","[1]; BEAS-2B, run 0517-10 min, read-out: survival rate (inhibition effect)",94.6%
same,"viability at 72 h, 10 µM","[1]; summary, pulmonary epithelial cell line, read-out: Inhibitory effect",98.6%
same,viability at 10 µM,"NIH-OVCAR-3; OVCAR-3, 72 h, NIH-OVCAR-3, average of 4 tests, read-out: survival rate (inhibition effect), Average",86%
same,viability at 10 µM,"NIH-OVCAR-3; OVCAR-3, NIH-OVCAR-3, 72 h, run 7-3-30 min, read-out: survival rate (inhibition effect)",80.2%
same,viability at 10 µM,"NIH-OVCAR-3; OVCAR-3, NIH-OVCAR-3, 72 h, run 7-4-30 min (fourth column), read-out: survival rate (inhibition effect)",97.8%
same,viability at 10 µM,"NIH-OVCAR-3; OVCAR-3, NIH-OVCAR-3, 72 h, run 7-4-30 min (second column), read-out: survival rate (inhibition effect)",81.9%
same,viability at 10 µM,"NIH-OVCAR-3; OVCAR-3, NIH-OVCAR-3, 72 h, run 7-7-30 min, read-out: survival rate (inhibition effect)",83.9%
same,viability at 10 µM,[2]; [6],66.1%
same,viability at 10 µM,"[2]; run 0612-20 min, read-out: survival rate (inhibition effect)",69.8%
same,viability at 10 µM,"[2]; run 0614-20 min, read-out: survival rate (inhibition effect)",67.4%
same,viability at 10 µM,"[2]; run 0616-20 min, read-out: survival rate (inhibition effect)",66.2%
same,viability at 10 µM,"[2]; run 0619-20 min, read-out: survival rate (inhibition effect)",60.9%
same,viability at 10 µM,HCT116-wt; [6],28.4%
same,viability at 10 µM,"HCT116-wt; run 0602-30 min, read-out: survival rate (inhibition effect)",23.8%
same,viability at 10 µM,"HCT116-wt; run 0605-10 min, read-out: survival rate (inhibition effect)",30.6%
same,viability at 10 µM,"HCT116-wt; run 0607-10 min, read-out: survival rate (inhibition effect)",29.7%
same,viability at 10 µM,"HCT116-wt; run 0609-10 min, read-out: survival rate (inhibition effect)",29.5%
same,viability at 10 µM,TOV-21G; [6],87.1%
same,viability at 10 µM,"TOV-21G; run 4-30 min, read-out: survival rate (inhibition effect)",86.1%
same,viability at 10 µM,"TOV-21G; run 7-3-30 min, read-out: survival rate (inhibition effect)",93.5%
same,viability at 10 µM,"TOV-21G; run 7-4-30 min, read-out: survival rate (inhibition effect)",79.7%
same,viability at 10 µM,"TOV-21G; run 7-7-30 min, read-out: survival rate (inhibition effect)",89.2%
same,viability at 10 µM,skin cancer cells,51%
same,viability at 10 µM,gastric cancer cells,26.3%
same,viability at 10 µM,"[3]; MKN-45, 72 h, MKN-45, average of 4 tests, read-out: survival rate (inhibition effect), Average",40.5%
same,viability at 10 µM,"[3]; MKN-45, MKN-45, 72 h, run 0510-10 min, read-out: survival rate (inhibition effect)",36.2%
same,viability at 10 µM,"[3]; MKN-45, MKN-45, 72 h, run 0512-10 min, read-out: survival rate (inhibition effect)",52%
same,viability at 10 µM,"[3]; MKN-45, MKN-45, 72 h, run 0515-10 min, read-out: survival rate (inhibition effect)",37.8%
same,viability at 10 µM,"[3]; MKN-45, MKN-45, 72 h, run 0517-10 min, read-out: survival rate (inhibition effect)",36%
same,viability at 10 µM,"[4]; 786-0, 786-O, 72 h, run 0524-10 min, read-out: survival rate (inhibition effect)",35.2%
same,viability at 10 µM,"[4]; 786-0, 786-O, 72 h, run 0526-10 min, read-out: survival rate (inhibition effect)",24%
same,viability at 10 µM,"[4]; 786-0, 786-O, 72 h, run 0529-10 min, read-out: survival rate (inhibition effect)",14.6%
same,viability at 10 µM,"[4]; 786-0, 786-O, 72 h, run 0531-10 min, read-out: survival rate (inhibition effect)",22.3%
same,viability at 10 µM,"[4]; 786-0, 72 h, 786-O, average of 4 tests, read-out: survival rate (inhibition effect), Average",24%
same,viability at 10 µM,"[4]; 786-0, 72 h, summary, renal cancer, read-out: Inhibitory effect",72.5%
same,viability at 10 µM,hepatic cancer cells,60.1%
same,viability at 10 µM,"[5]; MCF7, 72 h, MCF7, average of 4 tests, read-out: survival rate (inhibition effect), Average",51.2%
same,viability at 10 µM,"[5]; MCF7, MCF7, 72 h, run 0612-10 min, read-out: survival rate (inhibition effect)",47.7%
same,viability at 10 µM,"[5]; MCF7, MCF7, 72 h, run 0614-10 min, read-out: survival rate (inhibition effect)",50%
same,viability at 10 µM,"[5]; MCF7, MCF7, 72 h, run 0616-10 min, read-out: survival rate (inhibition effect)",55.4%
same,viability at 10 µM,"[5]; MCF7, MCF7, 72 h, run 0619-10 min, read-out: survival rate (inhibition effect)",51.6%
